Experimental findings from patent publication US11567065B2, “Measuring frequency of pathogen-specific T cells in peripheral blood” (THOMAS JEFFERSON UNIVERSITY, priority 2015, dated 2023) are described below.

The subject of this assay is 68A62 CTL. As to the kind of experiment: CaFlux assay: Ca2+ flux in monolayer of 68A62 CTL. It is filed as cell-based, human. The conditions noted are these: FIG. 4A. On the procedure: 10^6 cells in 1 ml of PBS were loaded with Fluo-4 (Life Technologies) at 2-4 μM for 30 min at 37° C. in the presence of 0.02% pluoronic acid F-127 and 4 mM Probenecid. The cells were washed free of unreacted reagents and incubated at 37° C. for additional 30 min. The cells were then re-suspended in the assay buffer (Dulbecco's PBS containing 1 mM CaCl2, 2 mM MgCl2, 5 mM glucose, and 0.025% BSA) and used for Ca2+ flux analysis.
Glass bottom of 96 well MatTec plates was covered with poly-L-Lysine (Sigma, mol wt>300,000) at 0.1 mg/ml for 1 hr at room temperature. After washing with DPBS and dd water, TS2/4 non-blocking mAb specific for LFA-1 were added to the plate at concentration 10 μg/ml overnight & 4° C. The wells were washed with DPBS, and 3×10^5 Fluo-4-labeled T cells in 100 μl of the assay buffer were added to each well. The plates were centrifuged for 700 g for one minute and were incubated for 30 min at room temperature prior to the imaging. […] The quality of T cell monolayer was assessed using bright field microscopy.
To identify responding T cells we imaged T-cell monolayers before (background measurement) and after (response) addition of the stimulatory signal such as agonist peptide. […] The average intensity of images prior and after the T-cell stimulation at various time points and the numbers of individual responding cells per imaging field were determined by MetaMorph software.
(A change in cytosolic calcium serves as a functional read-out for many receptors and channels.)

Turning to ILKEPVHGV (IV9), the “time to maximum of Ca2+ increase following stimulation” value lay in the range of 2 to 3 min.
